Test results from ChEMBL document CHEMBL1208766, “Synthesis of potent chemical inhibitors of dynamin GTPase” (Bioorg Med Chem Lett, 2010).
Blank lines part the entries; values can stand above or below the compound they belong to. Calls of active or inactive are those of the source. The calls are words filed in the database; no cut-off is given here.

Experiments:
Dynamin-1 (Homo sapiens) = target: T1, Dynamin-1 (Homo sapiens) (UniProt Q05193); experiment: (§1) Inhibition of GTPase activity of Dynamin 1; set-up: concentration or dose not given beside the values; settings: concentration not given here
T1 sequence (whole entry): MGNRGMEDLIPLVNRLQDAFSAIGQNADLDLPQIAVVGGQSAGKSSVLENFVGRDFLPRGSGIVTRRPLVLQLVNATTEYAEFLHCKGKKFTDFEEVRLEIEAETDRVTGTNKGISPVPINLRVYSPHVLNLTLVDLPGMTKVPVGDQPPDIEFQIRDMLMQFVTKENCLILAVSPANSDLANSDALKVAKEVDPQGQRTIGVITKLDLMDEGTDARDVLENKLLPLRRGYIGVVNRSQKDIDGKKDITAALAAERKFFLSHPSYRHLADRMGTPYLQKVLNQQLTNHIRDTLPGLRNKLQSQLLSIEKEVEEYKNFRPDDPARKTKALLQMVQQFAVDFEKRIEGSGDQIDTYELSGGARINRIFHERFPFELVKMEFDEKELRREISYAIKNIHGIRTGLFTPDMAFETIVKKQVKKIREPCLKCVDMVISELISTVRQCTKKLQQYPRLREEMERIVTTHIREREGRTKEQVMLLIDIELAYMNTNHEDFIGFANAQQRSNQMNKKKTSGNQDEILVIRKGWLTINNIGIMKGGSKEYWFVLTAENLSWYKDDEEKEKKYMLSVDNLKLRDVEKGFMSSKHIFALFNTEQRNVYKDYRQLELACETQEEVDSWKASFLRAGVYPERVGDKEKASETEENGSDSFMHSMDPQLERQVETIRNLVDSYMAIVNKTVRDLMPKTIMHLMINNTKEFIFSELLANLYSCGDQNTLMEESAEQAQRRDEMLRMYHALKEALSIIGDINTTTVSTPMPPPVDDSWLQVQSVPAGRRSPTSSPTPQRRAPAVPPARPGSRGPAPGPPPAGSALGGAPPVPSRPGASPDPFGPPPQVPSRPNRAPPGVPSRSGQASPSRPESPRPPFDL

COS-7 [1] = experiment: Inhibition of transferrin uptake in african green monkey COS7 cells by microscopic TexasRed imaging; format: functional, cell-based; settings: Chlorocebus aethiops
COS-7 [2] = experiment: Inhibition of transferrin uptake in african green monkey COS7 cells after 30 mins by microscopic TexasRed imaging; format: functional, cell-based; settings: Chlorocebus aethiops
[3] = Cytotoxicity against african green monkey COS7 cells after 12 hrs; format: cell-based; settings: chlorocebus aethiops, cos-7, 12 h
Homo sapiens = species on record: Homo sapiens; experiment: Inhibition of GTPase activity of human mitochondrial Drp1 expressed in Escherichia coli BL-21
[4] = test system: Cell division control protein 42 homolog; experiment: Inhibition of GTPase activity of Cdc42
Dynamin-1 = target: T2, Dynamin-1 (Homo sapiens, UniProt Q05193); experiment: as §1
T2 sequence (Q05193 whole entry): T1 sequence (whole entry)

COS-7 [5] = experiment: Inhibition of dynamin 1 mediated membrane fission in african green monkey Cos7 cells transfected with mRFP-LCa at 10 uM by total internal reflection fluorescence microscopy; format: cell-based; settings: Chlorocebus aethiops

Structure (SMILES): O=C(N/N=C/c1ccc(O)c(O)c1)c1ccc2ccccc2c1
IC50 (COS-7 [1]): 4 µM
inhibition (COS-7 [2]): inactive
Activity [3]: Non-toxic
inhibition (Homo sapiens): Active
inhibition [4]: inactive
IC50 (Dynamin-1): 5.1 µM
inhibition (Dynamin-1 (Homo sapiens)): 73.2%
inhibition (COS-7 [5]): Active

Structure (SMILES): Cc1ccc(/C=N/NC(=O)c2ccc3ccccc3c2)cc1C
inhibition (Dynamin-1 (Homo sapiens)): 0%

Structure (SMILES): O=C(N/N=C/c1ccc(Cl)c(Cl)c1)c1cc2ccccc2cc1O
inhibition (Dynamin-1 (Homo sapiens)): 0%

Structure (SMILES): O=C(NCCc1ccc(O)cc1)c1ccc2ccccc2c1
inhibition (Dynamin-1 (Homo sapiens)): 0%

Structure (SMILES): NCCc1ccc(OC(=O)c2ccc3ccccc3c2)cc1
inhibition (Dynamin-1 (Homo sapiens)): 0%

Structure (SMILES): O=C(OP(=O)(N1CCOC1=O)N1CCOC1=O)c1ccc2ccccc2c1
inhibition (COS-7 [1]): Active
inhibition (Dynamin-1 (Homo sapiens)): 0%

Structure (SMILES): COc1ccc(/C=N/NC(=O)c2cc3ccccc3cc2O)cc1O
IC50 (COS-7 [1]): 2.6 µM
inhibition (COS-7 [2]): inactive
Activity [3]: Non-toxic
inhibition (Homo sapiens): Active
inhibition [4]: inactive
IC50 (Dynamin-1): 3.6 µM
inhibition (Dynamin-1 (Homo sapiens)): 74.7%
inhibition (COS-7 [5]): Active

Continued, in another order:

inhibition (Dynamin-1 (Homo sapiens)): 0%
Structure (SMILES): O=C(N/N=C/c1ccc(Cl)c(Cl)c1)c1ccc2ccccc2c1

inhibition (Dynamin-1 (Homo sapiens)): 0%
Structure (SMILES): O=C(N/N=C/c1cc(O)ccc1[N+](=O)[O-])c1cc2ccccc2cc1O

inhibition (Dynamin-1 (Homo sapiens)): 0%
Structure (SMILES): Cc1ccc(/C=N/NC(=O)c2cc3ccccc3cc2O)cc1C

inhibition (Homo sapiens): Active
IC50 (Dynamin-1): 10.8 µM
inhibition (Dynamin-1 (Homo sapiens)): 69.8%
Structure (SMILES): O=C(N/N=C/c1ccc(O)c(O)c1)c1cc2ccccc2cc1O [DYNASORE]
IC50 (COS-7 [1]): 15 µM
inhibition (COS-7 [5]): inactive
